pIC50: −log10 of the molar value.
How the values were obtained:
[1] = tested on: HeLa-MaTu-ADR cells; test: Proliferation assay, crystal violet (Method 3); assay type: cell-based; settings: Homo sapiens, 96 h, 4 days, read-out: Inhibition of HeLa-MaTu-ADR cell proliferation IC50
Description: (§1) Cultivated tumour cells (HeLa, human cervical tumour cells, ATCC CCL-2; NCI-H460, human non-small cell lung carcinoma cells, ATCC HTB-177; DU 145, hormone-independent human prostate carcinoma cells, ATCC HTB-81; HeLa-MaTu-ADR, multidrug-resistant human cervical carcinoma cells, EPO-GmbH Berlin; Caco-2, human colorectal carcinoma cells, ATCC HTB-37; B16F10, mouse melanoma cells, ATCC CRL-6475) were plated at a density of 5,000 cells/well (DU145, HeLa-MaTu-ADR), 3,000 cells/well (NCI-H460, HeLa), 1,500 cells/well (Caco-2), or 1,000 cells/well (B16F10) in a 96-well multititer plate in 200 μL of their respective growth medium supplemented 10% fetal calf serum. After 24 hours, the cells of one plate (zero-point plate) were stained with crystal violet (see below), while the medium of the other plates was supplemented with the test substances in various concentrations (0 μM, as well as in the range of 0.0001-10 μM; the final concentration of the solvent dimethyl sulfoxide was adjusted to 0.1%) using a Hewlett-Packard HP D300 Digital Dispenser. The cells were incubated for 4 days in the presence of test substances. Cell proliferation was determined by staining the cells with crystal violet: the cells were fixed by adding 20 μl/measuring point of an 11% glutaric aldehyde solution for 15 minutes at room temperature. After three washing cycles of the fixed cells with water, the plates were dried at room temperature. The cells were stained by adding 100 μl/measuring point of a 0.1% crystal violet solution (pH 3.0). After three washing cycles of the stained cells with water, the plates were dried at room temperature. The dye was dissolved by adding 100 μl/measuring point of a 10% acetic acid solution. The extinction was determined by photometry at a wavelength of 595 nm. The change of cell number, in percent, was calculated by normalization of the measured values to the extinction values of the zero-point plate (=0%) and the extinction of the untreated (0 μm) cells (=100%). The IC50 values (inhibitory concentration at 50% of maximal effect) were determined by means of a 4 parameter fit.

[2] = tested on: NCI-H460 cells; test: Proliferation assay, crystal violet (Method 3); assay type: cell-based; settings: Homo sapiens, 96 h; NCI-H460, 4 days; read-out: Inhibition of NCI-H460 cell proliferation IC50
Description: as §1

[3] = tested on: Caco-2 cells; test: Proliferation assay, crystal violet (Method 3); assay type: cell-based; settings: Homo sapiens, 96 h; Caco-2, 4 days; read-out: Inhibition of Caco-2 cell proliferation IC50
Description: as §1

[4] = tested on: B16F10 cells; test: Proliferation assay, crystal violet (Method 3); assay type: cell-based; settings: Mus musculus, B16-F10, 96 h; B16F10, 4 days; read-out: Inhibition of B16F10 cell proliferation IC50
Description: as §1

[5] = tested on: DU145 cells; test: Proliferation assay, crystal violet (Method 3); assay type: cell-based; settings: Homo sapiens, DU-145, 96 h; DU145, 4 days; read-out: Inhibition of DU145 cell proliferation IC50
Description: as §1

[6] = molecular target: T1, CDK9/CycT1 (Homo sapiens, UniProt P50750); test: CDK9/CycT1 high ATP kinase assay (TR-FRET, Method 1b); assay type: biochemical; settings: 2 mM ATP; for pIC50: Method 1b; for Selectivity high ATP CDK9 over high ATP CDK2: IC50 (high ATP CDK2)/IC50 (high ATP CDK9): Methods 1b and 2b
T1 construct: Recombinant full-length His-tagged human CDK9 and CycT1; His; purchased Invitrogen PV4131; host or cells: insect cells
T1 sequence (P50750 whole entry): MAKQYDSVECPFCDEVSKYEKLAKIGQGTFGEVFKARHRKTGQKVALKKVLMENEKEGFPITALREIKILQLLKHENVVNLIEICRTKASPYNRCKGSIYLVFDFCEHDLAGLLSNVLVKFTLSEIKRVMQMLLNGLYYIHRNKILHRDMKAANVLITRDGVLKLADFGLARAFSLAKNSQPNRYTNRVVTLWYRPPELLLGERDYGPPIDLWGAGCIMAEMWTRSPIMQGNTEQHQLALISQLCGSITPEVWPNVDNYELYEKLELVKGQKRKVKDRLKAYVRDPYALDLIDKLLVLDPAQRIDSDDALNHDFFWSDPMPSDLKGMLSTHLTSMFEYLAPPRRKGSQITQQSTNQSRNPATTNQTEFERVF
T1 sequence (O60563 whole entry partner): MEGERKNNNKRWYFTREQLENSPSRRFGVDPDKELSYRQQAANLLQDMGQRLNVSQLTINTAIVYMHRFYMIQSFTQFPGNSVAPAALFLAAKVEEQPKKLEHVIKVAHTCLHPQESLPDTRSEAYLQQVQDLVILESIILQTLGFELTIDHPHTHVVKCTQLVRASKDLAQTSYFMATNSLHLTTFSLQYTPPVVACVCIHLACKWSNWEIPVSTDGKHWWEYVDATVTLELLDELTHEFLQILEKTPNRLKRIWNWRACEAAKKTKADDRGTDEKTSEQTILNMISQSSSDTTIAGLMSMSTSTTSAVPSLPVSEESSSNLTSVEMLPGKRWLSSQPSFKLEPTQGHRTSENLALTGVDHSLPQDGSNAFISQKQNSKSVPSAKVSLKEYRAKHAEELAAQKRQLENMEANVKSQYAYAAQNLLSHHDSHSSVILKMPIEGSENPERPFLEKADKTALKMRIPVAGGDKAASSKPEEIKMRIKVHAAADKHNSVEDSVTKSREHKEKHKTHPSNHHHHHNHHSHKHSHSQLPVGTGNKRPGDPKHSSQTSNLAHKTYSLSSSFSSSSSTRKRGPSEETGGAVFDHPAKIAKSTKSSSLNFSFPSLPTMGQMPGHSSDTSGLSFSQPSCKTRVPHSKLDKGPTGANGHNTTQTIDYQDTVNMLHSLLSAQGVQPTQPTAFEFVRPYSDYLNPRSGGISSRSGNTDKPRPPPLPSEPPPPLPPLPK
Description: 1b. CDK9/CycT1 High ATP Kinase Assay
CDK9/CycT1-inhibitory activity of compounds of the present invention at a high ATP concentration after preincubation of enzyme and test compounds was quantified employing the CDK9/CycT1 TR-FRET assay as described in the following paragraphs.
Recombinant full-length His-tagged human CDK9 and CycT1, expressed in insect cells and purified by Ni-NTA affinity chromatography, were purchase from Invitrogen (Cat. No PV4131). As substrate for the kinase reaction biotinylated peptide biotin-Ttds-YISPLKSPYKISEG (C-terminus in amid form) was used which can be purchased e.g. from the company JERINI peptide technologies (Berlin, Germany).
For the assay 50 nl of a 100 fold concentrated solution of the test compound in DMSO was pipetted into a black low volume 384 well microtiter plate (Greiner Bio-One, Frickenhausen, Germany), 2 μl of a solution of CDK9/CycT1 in aqueous assay buffer [50 mM Tris/HCl pH 8.0, 10 mM MgCl2, 1.0 mM dithiothreitol, 0.1 mM sodium ortho-vanadate, 0.01% (v/v) Nonidet-P40 (Sigma)] were added and the mixture was incubated for 15 min at 22° C. to allow pre-binding of the test compounds to the enzyme before the start of the kinase reaction. […] The concentration of CDK9/CycT1 was adjusted depending of the activity of the enzyme lot and was chosen appropriate to have the assay in the linear range, typical concentrations were in the range of 0.5 μg/mL. The reaction was stopped by the addition of 5 μl of a solution of TR-FRET detection reagents (0.2 μM streptavidine-XL665 [Cisbio Bioassays, Codolet, France] and 1 nM anti-RB(pSer807/pSer811)-antibody from BD Pharmingen [#558389] and 1.2 nM LANCE EU-W1024 labeled anti-mouse IgG antibody [Perkin-Elmer, product no. AD0077]) in an aqueous EDTA-solution (100 mM EDTA, 0.2% (w/v) bovine serum albumin in 100 mM HEPES pH 7.5).
The resulting mixture was incubated 1 h at 22° C. to allow the formation of complex between the phosphorylated biotinylated peptide and the detection reagents. Subsequently the amount of phosphorylated substrate was evaluated by measurement of the resonance energy transfer from the Eu-chelate to the streptavidine-XL. Therefore, the fluorescence emissions at 620 nm and 665 nm after excitation at 350 nm was measured in a HTRF reader, e.g. a Rubystar (BMG Labtechnologies, Offenburg, Germany) or a Viewlux (Perkin-Elmer). The ratio of the emissions at 665 nm and at […] was taken as the measure for the amount of phosphorylated substrate. The data were normalised (enzyme reaction without inhibitor=0% inhibition, all other assay components but no enzym=100% inhibition).

CS(=N)(=O)Cc1cc2nc(c1)Nc1cc(c(F)cn1)-c1ccc(F)cc1OCCCN2 (racemic) [Example 8, (rac)-15,19-difluoro-8-[(S-methylsulfonimidoyl)methyl]-2,3,4,5-tetrahydro-11H-10,6-(azeno)-16,12-(metheno)-1,5,11,13-benzoxatriazacyclooctadecine]
pIC50 [1]: 8.30 | pIC50 [2]: 7.41 | pIC50 [3]: 8.12 | pIC50 [4]: 7.96 | pIC50 [5]: 8.25 | pIC50 [6]: 9.15 | Selectivity high ATP CDK9 over high ATP CDK2: IC50 (high ATP CDK2)/IC50 (high ATP CDK9) [6]: 41.4

CN1CCCCOc2cc(F)ccc2-c2cc(ncc2F)Nc2cc(CS(C)(=N)=O)cc1n2 (racemic) [Example 11, (rac)-16,20-difluoro-6-methyl-9-[(S-methylsulfonimidoyl)methyl]-3,4,5,6-tetrahydro-2H-7,11-(azeno)-17,13-(metheno)-1,6,12,14-benzoxatriazacyclononadecine]
pIC50 [1]: 7.92 | pIC50 [2]: 7.92 | pIC50 [3]: 8.05 | pIC50 [4]: 7.92 | pIC50 [5]: 7.92 | pIC50 [6]: 8.59 | Selectivity high ATP CDK9 over high ATP CDK2: IC50 (high ATP CDK2)/IC50 (high ATP CDK9) [6]: 31

C[S+]([O-])Cc1cc2nc(c1)OCCCCc1cc(F)ccc1-c1cc(ncc1F)N2 (racemic) [Example 5, (rac)-2,18-Difluoro-9-[(methylsulfinyl)methyl]-13,14,15,16-tetrahydro-6H-7,11-(azeno)-5,1-(metheno)-12,4,6-benzoxadiazacyclooctadecine]
pIC50 [1]: 6.08 | pIC50 [2]: 5.97 | pIC50 [3]: 6.12 | pIC50 [5]: 6.08 | pIC50 [6]: 8.22 | Selectivity high ATP CDK9 over high ATP CDK2: IC50 (high ATP CDK2)/IC50 (high ATP CDK9) [6]: 1375

CC(C)(C)OC(=O)N=S(C)(=O)Cc1cc2cc(c1)OCCCNc1cc(F)ccc1-c1nc(ncc1F)N2 (racemic) [Example 13, (rac)-tert-butyl[{[15,19-difluoro-1,2,3,4-tetrahydro-16,12-(azeno)-6,10-(metheno)-5,1,11,13-benzoxatriazacyclooctadecin-8(11H)-yl]methyl}(methyl)oxido-λ^6-sulfanylidene]carbamate]
pIC50 [1]: 7.03 | pIC50 [2]: 7.10 | pIC50 [3]: 7.17 | pIC50 [5]: 7.26 | pIC50 [6]: 8.52 | Selectivity high ATP CDK9 over high ATP CDK2: IC50 (high ATP CDK2)/IC50 (high ATP CDK9) [6]: 426

CSCc1cc2nc(c1)OCCCCc1cc(F)ccc1-c1cc(ncc1F)N2 [Example 4, 2,18-Difluoro-9-[(methylsulfanyl)methyl]-13,14,15,16-tetrahydro-6H-7,11-(azeno)-5,1-(metheno)-12,4,6-benzoxadiazacyclooctadecine]
pIC50 [1]: 5.25 | pIC50 [2]: 5.32 | pIC50 [3]: 5.59 | pIC50 [4]: < 5.00 | pIC50 [5]: < 5.00 | pIC50 [6]: 6.49 | Selectivity high ATP CDK9 over high ATP CDK2: IC50 (high ATP CDK2)/IC50 (high ATP CDK9) [6]: >61.9

CC(C)(C)OC(=O)N=S(C)(=O)Cc1cc2cc(c1)OCCCCSc1cc(F)ccc1-c1nc(ncc1F)N2 (racemic) [Example 21, (rac)-tert-butyl[{[16,20-difluoro-2,3,4,5-tetrahydro-12H-17,13-(azeno)-11,7-(metheno)-6,1,12,14-benzoxathiadiazacyclononadecin-9-yl]methyl}(methyl)oxido-λ^6-sulfanylidene]carbamate]
pIC50 [1]: 6.48 | pIC50 [2]: 6.32 | pIC50 [3]: 6.61 | pIC50 [4]: 6.27 | pIC50 [5]: 6.49 | pIC50 [6]: 7.89 | Selectivity high ATP CDK9 over high ATP CDK2: IC50 (high ATP CDK2)/IC50 (high ATP CDK9) [6]: 915

CS(=O)(Cc1cc2nc(c1)Nc1cc(c(F)cn1)-c1ccc(F)cc1OCCCCN2)=NC(=O)OCc1ccccc1 (racemic) [Example 2, (rac)-Benzyl[{[16,20-difluoro-3,4,5,6-tetrahydro-2H,12H-11,7-(azeno)-13,17-(metheno)-1,6,12,14-benzoxatriazacyclononadecin-9-yl]methyl}(methyl)oxido-λ^6-sulfanylidene]carbamate]
pIC50 [1]: 6.92 | pIC50 [2]: 7.10 | pIC50 [3]: 7.01 | pIC50 [4]: 7.11 | pIC50 [5]: 7.03 | pIC50 [6]: 7.90 | Selectivity high ATP CDK9 over high ATP CDK2: IC50 (high ATP CDK2)/IC50 (high ATP CDK9) [6]: 634

CS(=N)(=O)Cc1cc2cc(c1)OCCCCSc1cc(F)ccc1-c1nc(ncc1F)N2 (racemic) [Example 22, (rac)-16,20-difluoro-9-[(S-methylsulfonimidoyl)methyl]-2,3,4,5-tetrahydro-12H-17,13-(azeno)-11,7-(metheno)-6,1,12,14-benzoxathiadiazacyclononadecine]
pIC50 [1]: 6.98 | pIC50 [2]: 6.94 | pIC50 [3]: 7.13 | pIC50 [4]: 6.96 | pIC50 [5]: 7.44 | pIC50 [6]: 8.35 | Selectivity high ATP CDK9 over high ATP CDK2: IC50 (high ATP CDK2)/IC50 (high ATP CDK9) [6]: 244

CSCc1cc2nc(c1)OCCCCCc1cc(F)ccc1-c1cc(ncc1F)N2 [Example 18, 2,19-difluoro-9-[(methylsulfanyl)methyl]-14,15,16,17-tetrahydro-6H,13H-7,11-(azeno)-5,1-(metheno)-12,4,6-benzoxadiazacyclononadecine]
pIC50 [1]: < 5.00 | pIC50 [2]: < 5.00 | pIC50 [3]: 5.33 | pIC50 [4]: < 5.00 | pIC50 [5]: < 5.00 | pIC50 [6]: 6.61 | Selectivity high ATP CDK9 over high ATP CDK2: IC50 (high ATP CDK2)/IC50 (high ATP CDK9) [6]: >81.3

CC(C)(C)OC(=O)N=S(C)(=O)Cc1cc2nc(c1)Nc1cc(c(F)cn1)-c1ccc(F)cc1OCCCCCN2 (racemic) [Example 9, (rac)-tert-butyl[{[17,21-difluoro-2,3,4,5,6,7-hexahydro-13H-12,8-(azeno)-14,18-(metheno)-1,7,13,15-benzoxatriazacycloicosin-10-yl]methyl}(methyl)oxido-λ^6-sulfanylidene]carbamate]
pIC50 [1]: 7.12 | pIC50 [2]: 7.41 | pIC50 [3]: 7.32 | pIC50 [4]: 7.07 | pIC50 [5]: 7.44 | pIC50 [6]: 8.17 | Selectivity high ATP CDK9 over high ATP CDK2: IC50 (high ATP CDK2)/IC50 (high ATP CDK9) [6]: 37.2

CSCc1cc2nc(c1F)N(C)CCCCOc1cc(F)ccc1-c1cc(ncc1F)N2 [Example 12, 8,16,20-trifluoro-6-methyl-9-[(methylsulfanyl)methyl]-3,4,5,6-tetrahydro-2H,12H-11,7-(azeno)-13,17-(metheno)-1,6,12,14-benzoxatriazacyclononadecine]
pIC50 [1]: 6.06 | pIC50 [2]: 6.23 | pIC50 [3]: 6.36 | pIC50 [4]: 6.00 | pIC50 [5]: 6.07 | pIC50 [6]: 8.00

Reference: patent US10214542B2, “Modified macrocyclic compounds” (BAYER PHARMA AKTIENGESELLSCHAFT, priority 2015, dated 2019)
